Source: patent US6623769B1, “Administration of lycopene for combating skin/mucous membrane damage” (Societe L'Oreal S.A., priority 1999, dated 2003)

System: promoter of the gene for collagenase 1
Test: Inhibition of PMA-induced activity of the collagenase 1 promoter (CAT reporter, CAT-Elisa) in transfected HeLa cells
Assay type: cell-based
Settings: conclusion in words from the Table, PMA induction
Description: The activity of a lycopene-rich tomato extract (LycOMato® marketed by Metaphar) was studied on HeLa cells transfected with an expression vector encoding a portion of the promoter of collagenase cloned upstream of the gene for chloramphenicol acetyltransferase (CAT).
The study made it possible to evaluate the effectiveness of a product in inhibiting the induction of the transcription of the gene for collagenase by phorbol 12-myristate 13-acetate (PMA).
The test was carried out on HeLa cells (ATCC CCL2), into which had been introduced the promoter of the gene for collagenase 1 (3.8 kB) cloned upstream of the gene for chloramphenicol acetyltransferase (CAT).
The cells were exposed to PMA at a concentration of 10 nM for 24 hours.
Before administration of PMA, the cells were contacted for 2 hours with lycopene (LycOMato® marketed by Metaphar) at concentrations varying from 10^−7% to 10^−4%, representing lycopene concentrations ranging from 6×10^−9% to 6×10^−6%.
Assaying of the CAT was carried out using a “CAT-Elisa” kit marketed by Boehringer, according to the supplier's instructions.
A “base level” for the expression of the CAT was measured in cells which had neither received PMA nor were treated with the test product.
The results of the test, reported in the following Table, are expressed with respect to the base level (100%) as percentage of inhibition of the expression of the CAT gene.

CC(C)=CCC/C(C)=C/C=C/C(C)=C/C=C/C(C)=C/C=C/C=C(C)/C=C/C=C(C)/C=C/C=C(\C)CCC=C(C)C [lycopene]
effect on the synthesis of collagenase 1 by inhibition of the activity of its promoter: inhibitory effect
